The results in this text go back to PubChem BioAssay AID588647 (Sanford-Burnham Center for Chemical Genomics, 2011).

This experiment concerns the target intestinal alkaline phosphatase (Mus musculus). Put plainly: mouse IAP inhibition by analogs – biochemical, luminescence, set 2, SAR follow-up (AID 588647). To be noted: purified mouse IAP, luminescent substrate read-out.

Each structure is given as a SMILES string. “And” between values parts separate entries of the source, which are not always exact repeats. Equal entries are not always repeated. The source made the active and inactive calls. No rule for the calls is given here.

For the compound `Cc1ccc(C)c(NC(=O)CCNS(=O)(=O)c2ccc3ccccc3c2)c1`, the concentration for half-maximal inhibition (IC50) is 78 µM.

For the compound `COc1cccc(CNS(=O)(=O)c2ccc3[nH]c(=O)oc3c2)c1`, the half-inhibitory concentration (IC50) was 40 µM.

Take `O=C(CCNS(=O)(=O)c1ccc2[nH]c(=O)oc2c1)NCc1cccc(F)c1`: the IC50 was > 100 µM (inactive).

In the case of `COc1ccc(CNC(=O)CCNS(=O)(=O)c2ccc3ccccc3c2)c(OC)c1`, the IC50 was > 100 µM (inactive).

With `O=C(CCCNS(=O)(=O)c1ccc2[nH]c(=O)oc2c1)NCc1ccccc1Cl`, the half-inhibitory concentration (IC50) is 1.6 µM and > 100 µM (inactive).

Turning to `O=C(N/N=C/c1cc(Br)ccc1F)c1ccc(O)cc1`, the IC50 was > 100 µM (inactive).

On to `Cc1ccc(C)c(NS(=O)(=O)c2ccc3[nH]c(=O)oc3c2)c1`, for which the IC50 was > 100 µM (inactive).

On to `COc1ccc(CNC(=O)CNS(=O)(=O)c2ccc3[nH]c(=O)oc3c2)cc1`, for which the half-inhibitory concentration (IC50) was 0.89 µM and 2.1 µM and 2.5 µM.

As to `COc1cccc(C(=O)N/N=C/c2ccccc2F)c1`, the IC50 is > 100 µM (inactive).

On to `O=c1[nH]c2ccc(S(=O)(=O)NCCc3ccc4c(c3)OCO4)cc2o1`, for which the IC50 was > 100 µM (inactive).

As to `C/C(=N\NC(=O)c1cc(O)c(O)c(O)c1)c1ccc(O)cc1O`, the half-inhibitory concentration (IC50) was 0.777 µM.

`Cc1ccc(NC(=O)CCNS(=O)(=O)c2ccc3[nH]c(=O)oc3c2)cc1C`: the concentration for half-maximal inhibition (IC50) was 84 µM.

As for `N#Cc1cccc(NS(=O)(=O)c2ccc3[nH]c(=O)oc3c2)c1`, the IC50 was > 100 µM (inactive).

With `COc1ccc(NC(=O)CCCNS(=O)(=O)c2ccc3[nH]c(=O)oc3c2)c(OC)c1`, the IC50 is 6.3 µM.

For the compound `COc1ccc(CNS(=O)(=O)c2ccc3[nH]c(=O)oc3c2)cc1`, the IC50 was 98 µM.

As for `O=C(N/N=C/c1ccccc1C(F)(F)F)c1cc(O)c(O)c(O)c1`, the 50% inhibitory concentration (IC50) is 8.46 µM.

As for `CC(C)(C)c1ccc(/C=N/NC(=O)c2cc(O)c(O)c(O)c2)cc1`, the IC50 was > 100 µM (inactive).

As for `O=C(N/N=C/c1c(Cl)cccc1Cl)c1cc(O)c(O)c(O)c1`, the IC50 is 11.1 µM.

Take `Cc1ccc(CNC(=O)CCNS(=O)(=O)c2ccc3[nH]c(=O)oc3c2)cc1`: the IC50 is 89 µM.

For `O=C(CCNS(=O)(=O)c1ccc2[nH]c(=O)oc2c1)NCc1ccc(O)c(O)c1`, the IC50 is 7.7 µM.

As for `CC(C)Oc1ccc(CNC(=O)C2CCCN(S(=O)(=O)c3ccc4[nH]c(=O)oc4c3)C2)cc1` (stereo unspecified), the IC50 was > 100 µM (inactive).

As for `COc1ccc(CCNC(=O)CCCNS(=O)(=O)c2ccc3[nH]c(=O)oc3c2)cc1`, the IC50 is 7.4 µM.

On to `Cc1ccccc1CNC(=O)C1CCCN(S(=O)(=O)c2ccc3[nH]c(=O)oc3c2)C1` (stereo unspecified), for which the IC50 is > 100 µM (inactive).

As to `O=C(N/N=C/c1c(F)cccc1Cl)c1ccc(O)cc1O`, the IC50 is > 100 µM (inactive).

In the case of `COc1ccccc1CNC(=O)CCNS(=O)(=O)c1ccc2[nH]c(=O)oc2c1`, the IC50 was > 100 µM (inactive).

On to `CC(C)c1ccc(NC(=O)CCNS(=O)(=O)c2ccc3c(c2)oc(=O)n3C)cc1`, for which the IC50 was > 100 µM (inactive).

On to `COc1ccc(CNC(=O)C2CCCN(S(=O)(=O)c3ccc4[nH]c(=O)oc4c3)C2)cc1` (stereo unspecified), for which the IC50 is > 100 µM (inactive).

For the compound `O=C(CCS(=O)(=O)Nc1ccc2[nH]c(=O)oc2c1)NCc1ccccc1Cl`, the half-maximal inhibitory concentration (IC50) was 86 µM.

On to `Cc1ccc(C)c(NC(=O)C2CCCN(S(=O)(=O)c3ccc4c(c3)oc(=O)n4C)C2)c1` (stereo unspecified), for which the IC50 was > 100 µM (inactive).

Take `O=C(CCCNS(=O)(=O)c1ccc2[nH]c(=O)oc2c1)NCc1ccc2c(c1)OCO2`: the IC50 is 45 µM.

As for `COc1ccc(NC(=O)CCCNS(=O)(=O)c2ccc3[nH]c(=O)oc3c2)cc1OC`, the IC50 was 1.5 µM.

For the compound `O=C(N/N=C/c1ccccc1F)c1ccc(O)cc1`, the IC50 was > 100 µM (inactive).

Turning to `Cc1ccc(NC(=O)CCNS(=O)(=O)c2ccc3c(c2)oc(=O)n3C)cc1`, the IC50 was 99 µM.

Consider `COc1ccc(/C=N\NC(=O)c2cc(O)c(O)c(O)c2)cc1CN1CCN(c2ccc(F)cc2)CC1`, for which the 50% inhibitory concentration (IC50) was 27.9 µM.

Take `COc1ccc(NC(=O)CCNS(=O)(=O)c2ccc3ccccc3c2)cc1OC`: the IC50 is > 100 µM (inactive).

Consider `COc1ccc(CNC(=O)CCCNS(=O)(=O)c2ccc3[nH]c(=O)oc3c2)cc1OC`, for which the IC50 was 78 µM.

In the case of `O=c1[nH]c2ccc(S(=O)(=O)NCc3ccc4c(c3)OCO4)cc2o1`, the IC50 was > 100 µM (inactive).

Regarding `COc1ccc(/C=N/NC(=O)c2cc(O)c(O)c(O)c2)cc1OC`, the IC50 is > 100 µM (inactive).

For the compound `O=C(CCNS(=O)(=O)c1ccc2[nH]c(=O)oc2c1)NCc1cccc(Cl)c1`, the IC50 is > 100 µM (inactive).

In the case of `O=C(CCS(=O)(=O)Nc1ccc2[nH]c(=O)oc2c1)NCc1cccc(Cl)c1`, the concentration for half-maximal inhibition (IC50) is 67 µM.

On to `O=C(CCNS(=O)(=O)c1ccc2[nH]c(=O)oc2c1)NCc1cccc(C(F)(F)F)c1`, for which the concentration for half-maximal inhibition (IC50) is 70 µM.

Regarding `O=C(CCCNS(=O)(=O)c1ccc2[nH]c(=O)oc2c1)NCc1cccc(F)c1`, the IC50 was 2.8 µM and 13 µM.

Consider `N#Cc1cccc(NC(=O)CNS(=O)(=O)c2ccc3[nH]c(=O)oc3c2)c1`, for which the 50% inhibitory concentration (IC50) is 1.4 µM and > 100 µM (inactive).

Turning to `O=C(CCNS(=O)(=O)c1ccc2[nH]c(=O)oc2c1)Nc1ccc2c(c1)OCO2`, the half-maximal inhibitory concentration (IC50) is 12 µM.

In the case of `COc1ccc(NC(=O)CCNS(=O)(=O)c2ccc3[nH]c(=O)oc3c2)cc1OC`, the IC50 was 0.53 µM and 0.54 µM.

As for `COc1cc(C(=O)N/N=C/c2c(F)cccc2Cl)cc(OC)c1OC`, the IC50 was > 100 µM (inactive).

Regarding `COc1ccc(NS(=O)(=O)c2ccc3[nH]c(=O)oc3c2)cc1OC`, the IC50 was > 100 µM (inactive).

Turning to `O=C(NCc1ccc2c(c1)OCO2)C1CCCN(S(=O)(=O)c2ccc3[nH]c(=O)oc3c2)C1` (stereo unspecified), the IC50 is > 100 µM (inactive).

`CC(=NNC(=O)c1ccccc1OCCOc1ccccc1)c1ccccc1F`: the IC50 was > 100 µM (inactive).

In the case of `COc1ccccc1CNC(=O)CCCNS(=O)(=O)c1ccc2[nH]c(=O)oc2c1`, the IC50 was 2 µM and 5.4 µM.

As to `COc1cccc(NC(=O)CCNS(=O)(=O)c2ccc3c(c2)oc(=O)n3C)c1`, the IC50 was > 100 µM (inactive).

Turning to `COc1ccc(/C=N/NC(=O)c2cc(O)c(O)c(O)c2)c(OC)c1`, the half-inhibitory concentration (IC50) is 8.41 µM.

On to `Cc1ccccc1CNC(=O)CCCNS(=O)(=O)c1ccc2[nH]c(=O)oc2c1`, for which the IC50 is > 100 µM (inactive).

Turning to `COc1ccc(CCNC(=O)CCCNS(=O)(=O)c2ccc3[nH]c(=O)oc3c2)cc1OC`, the IC50 is 1.5 µM.

With `CN(C)c1ccc(CNC(=O)C2CCCN(S(=O)(=O)c3ccc4[nH]c(=O)oc4c3)C2)cc1` (stereo unspecified), the IC50 was > 100 µM (inactive).

For `COc1ccc(CNC(=O)CCNS(=O)(=O)c2ccc3c(c2)CCC3)c(OC)c1`, the IC50 is > 100 µM (inactive).

With `COc1cccc(CNC(=O)CCNS(=O)(=O)c2ccc3[nH]c(=O)oc3c2)c1`, the IC50 is 0.82 µM and 34 µM and > 100 µM (inactive).

In the case of `O=C(N/N=C/c1ccccc1F)c1ccc(O)cc1O`, the IC50 is > 100 µM (inactive).

As to `O=c1[nH]c2ccc(S(=O)(=O)Nc3ccc4c(c3)OCO4)cc2o1`, the IC50 was > 100 µM (inactive).

For `Cc1ccc(C)c(NC(=O)CCNS(=O)(=O)c2ccc3c(c2)CCC3)c1`, the IC50 was > 100 µM (inactive).

Take `COc1cc(/C=N/NC(=O)c2cc(O)c(O)c(O)c2)ccc1O`: the concentration for half-maximal inhibition (IC50) was 3.87 µM.

As to `Cc1cc(NC(=O)CCNS(=O)(=O)c2ccc3[nH]c(=O)oc3c2)ccc1Br`, the half-inhibitory concentration (IC50) was 94 µM.

`Cc1ccc(NC(=O)CCNS(=O)(=O)c2ccc3c(c2)oc(=O)n3C)c(C)c1`: the IC50 is > 100 µM (inactive).

On to `CSc1cccc(NC(=O)C2CCCN(S(=O)(=O)c3ccc4c(c3)oc(=O)n4C)C2)c1` (stereo unspecified), for which the IC50 was > 100 µM (inactive).

With `COc1ccc(OC)c(NC(=O)CCNS(=O)(=O)c2ccc3c(c2)oc(=O)n3C)c1`, the IC50 is > 100 µM (inactive).

As to `N#Cc1cccc(CNC(=O)CCNS(=O)(=O)c2ccc3[nH]c(=O)oc3c2)c1`, the IC50 was 2 µM.

Turning to `O=C(N/N=C/c1ccccc1F)c1ccccc1OCc1ccccc1`, the IC50 was > 100 µM (inactive).

As for `N#Cc1ccc(NC(=O)CNS(=O)(=O)c2ccc3[nH]c(=O)oc3c2)cc1`, the IC50 is 1.6 µM and 4.7 µM.

Take `COc1ccc(OC)c(NC(=O)C2CCCN(S(=O)(=O)c3ccc4c(c3)oc(=O)n4C)C2)c1` (stereo unspecified): the IC50 was > 100 µM (inactive).

Consider `O=C(CCNS(=O)(=O)c1ccc2ccccc2c1)NCCc1ccc2c(c1)OCO2`, for which the IC50 is > 100 µM (inactive).

Consider `O=C(N/N=C/c1ccc(F)c(Br)c1)c1cc(O)c(O)c(O)c1`, for which the IC50 was 8.37 µM.

With `O=C(CCS(=O)(=O)Nc1ccc2[nH]c(=O)oc2c1)NCc1cccc(F)c1`, the half-inhibitory concentration (IC50) is 66 µM.

With `O=C(N/N=C/c1c(F)cccc1Cl)c1cc(O)c(O)c(O)c1`, the 50% inhibitory concentration (IC50) was 8.02 µM.

`O=C(N/N=C/c1ccc(Cl)c(Cl)c1)c1cc(O)c(O)c(O)c1`: the IC50 was 9.66 µM.

For `CCOc1cc(C(=O)N/N=C/c2ccccc2F)cc(OCC)c1OCC`, the IC50 is > 100 µM (inactive).

With `O=C(N/N=C/c1ccccc1Cl)c1cc(O)c(O)c(O)c1`, the IC50 was 7.49 µM.

Regarding `COc1ccc(NC(=O)CCNS(=O)(=O)c2ccc3c(c2)CCC3)cc1OC`, the IC50 is > 100 µM (inactive).

For `COc1ccc(C(=O)N/N=C/c2ccccc2F)cc1`, the IC50 was > 100 µM (inactive).

Turning to `CCOc1ccc(CNC(=O)C2CCCN(S(=O)(=O)c3ccc4[nH]c(=O)oc4c3)C2)cc1OC` (stereo unspecified), the IC50 was > 100 µM (inactive).

Take `O=C(CCNS(=O)(=O)c1ccc2[nH]c(=O)oc2c1)NCc1ccccc1F`: the IC50 is > 100 µM (inactive).

`O=C(CCNS(=O)(=O)c1ccc2[nH]c(=O)oc2c1)NCc1ccc(C(F)(F)F)cc1`: the IC50 was > 100 µM (inactive).

In the case of `O=C(N/N=C/c1ccc(F)cc1F)c1ccc(O)cc1`, the IC50 was > 100 µM (inactive).

With `O=C(CNS(=O)(=O)c1ccc2[nH]c(=O)oc2c1)NCCc1ccc2c(c1)OCO2`, the IC50 was > 100 µM (inactive).

Turning to `COc1cccc(/C=N/NC(=O)c2cc(O)c(O)c(O)c2)c1O`, the 50% inhibitory concentration (IC50) is 4.01 µM.

For the compound `O=C(N/N=C/c1ccc(Br)cc1F)c1cc(O)ccc1O`, the IC50 was > 100 µM (inactive).

As to `Cc1ccc(C)c(CNC(=O)C2CCCN(S(=O)(=O)c3ccc4[nH]c(=O)oc4c3)C2)c1` (stereo unspecified), the IC50 is > 100 µM (inactive).

One may read the IC50 as the concentration that gives 50% inhibition.
